The text below walks through data of paper PMC3877555 (Cell Death & Disease, 2013).

Structures are written as SMILES.

The target of this experiment is HRas-GTP (Homo sapiens, UniProt P01112). Description: SPR. The format is binding.
Chain of HRas-GTP (P01112 1-186): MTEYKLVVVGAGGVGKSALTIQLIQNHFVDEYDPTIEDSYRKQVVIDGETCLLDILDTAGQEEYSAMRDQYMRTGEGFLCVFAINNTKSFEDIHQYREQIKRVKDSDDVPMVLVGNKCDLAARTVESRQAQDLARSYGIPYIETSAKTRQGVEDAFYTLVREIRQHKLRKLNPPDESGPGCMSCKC

Turning to `C[C@@]12C3=CC(=O)OCC3=C[C@H]3OC(=O)[C@](C)([C@H]31)[C@@H](O)[C@H]1O[C@H]12` [WA, Wentilactone A], the Kd was found to be 15.7 µM.
